Source: patent US20050004044A1, “Use of orsaponin [3beta, 16beta, 17 alpha-trihydroxycholost-5-en-22-one 16-0-(2-0-4-methoxybenzoyl-beta-D-xylopyranosyl)-(1->3)-(2-0-acetyl-alpha-L-arabinopyranoside)] or OSW-1 and its derivatives for cancer therapeutics” (priority 2003, published 2005)

Assays:
Raji cells (lymphoma) = experiment: MTT cell growth inhibition, Raji; type: cell-based, human; conditions: 72 h
Description: FIG. 2. Effect of Orsaponin (OSW-1) on cell growth in two human cancer cell lines including a leukemia and a lymphoma cell line. HL-60 (leukemia) and Raji cells (lymphoma) in exponentially growing phase were treated with the indicated concentrations of OSW-1 for 72 hours. Cell growth inhibition was measured by MTT assay.
Cells and Cell Lines. Various cancer cell lines were used including the human leukemia cell lines HL-60 and ML-1 cells; human lymphoma cell line Raji; human pancreatic cancer cells AsPC-1; and human ovarian cancer cells SKOV3; human colon cancer cells HCT116; as well as isolated CLL cells from patients; and lymphocytes from normal donors. Cells were grown and maintained as per protocols known in the art using appropriate cell culture media and supplements.
1. MTT Assays. For these assays either cancer cell lines were used. […] After the indicated number of days (usually 3 days or 72 hours) of exposure to OSW-1, cell survival was assessed by the addition of the MTT dye to the wells. […] Survival of cells under orsaponin treatment was evaluated as a percentage of control cell growth. […]
Anticancer activities of Orsaponin and 17-deoxyorsaponin were examined in human leukemia cells (ML-1) and human lymphoma cells (Raji). Cells were incubated with various concentrations of Orsaponin and 17-deoxyorsaponin for 72 h, and cell growth inhibition was measured by MTT assay.

[1] = test system: human promyelocytic leukemia HL-60 cells; conditions: Mimaki et al., 1997; read-out: IC50, cytostatic activity against HL-60; cited from earlier work
[2] = test system: HCT116 p53−/− colon cancer cells; experiment: Colony formation assay, HCT116 p53−/−; type: cell-based, human
Description: FIG. 6. Effect of OSW-1 on cell survival in human colon carcinoma cells. Human colon cancer cells with wild-type p53 (HCT116 p53+/+) and p53-null (HCT116 p53−/−) were treated with the indicated concentrations of OSW-1, and cell survival was measured by colony formation assay.
OSW-1 Inhibits Growth of Human Colon Cancer Cells. […] The HCT116 colon cancer cells with wild-type p53 (p53+/+) and p53-null (p53−/−) were treated with the various concentrations of orsaponin (OSW-1), and cell survival was measured by colony formation assay.

AsPC-1/IκBα-ND cells = experiment: MTT cell growth inhibition, AsPC-1 with NFκB inactivated; type: cell-based; conditions: Homo sapiens, ASPC1, 72 h
Description: FIG. 4. The anticancer activity of Orsaponin (OSW-1) is not affected by NFκB expression in pancreatic cancer cells. Human pancreatic cancer cells AsPC-1 with constitutive activation of NFκB or inactivation of NFκB by dominant negative IκBα (AsPC-1/IκBα-ND) were treated with the indicated concentrations of OSW-1 for 72 h. Cell growth inhibition was measured by MTT assay.
1. MTT Assays. For these assays either cancer cell lines were used. Alternatively, mononuclear cells from peripheral blood samples of CLL patients or normal donors were separated by Ficoll Hipaque fractionation and resuspended in DMEM complete medium. Malignant cells from various human cell lines (usually at 5×10^4 cells/ml) or mononuclear cells from peripheral blood of leukemia patients and healthy donors (1×10^6 cells/ml) were incubated in either αMEM or RPMI 1640 with or without various concentrations of OSW-1 in the range of 0-10 nM. Each experimental condition was done in triplicate. After the indicated number of days (usually 3 days or 72 hours) of exposure to OSW-1, cell survival was assessed by the addition of the MTT dye to the wells. […] Survival of cells under orsaponin treatment was evaluated as a percentage of control cell growth. […]
OSW-1 Inhibits Growth of Pancreatic Cancer Cells Irrespective of NFκB Expression. […] Cell growth inhibition was measured by MTT assay. […]

[3] = test system: cancer cells of pancreatic, ovarian, colon, and CLL origins; experiment: Cytotoxicity in cancer cells, summary statement; type: cell-based; conditions: Homo sapiens, read-out: IC50, kills cancer cells
Excerpt: The results were also observed in vivo in mouse models of ovarian cancer where animal survival was improved, and tumor volume reductions were observed

[4] = test system: C19 cells (ML-1 mutant with mitochondrial respiration defect); experiment: Mitochondrial transmembrane potential (rhodamine-123), C19; type: cell-based, human; conditions: C19, 1 nM
Description: FIG. 11. Effect of orsaponin (OSW-1) on mitochondrial transmembrane potential ML-1 cells. The parental ML-1 line and its mutant with mitochondrial respiration defect, clone C19, were incubated with 1 nM OSW-1 for the indicated times. Change in mitochondrial transmembrane potential was measured by cytometry analysis, using rhodamine-123 as a potential-sensitive fluorescent probe.
(§1) 3. Analysis of the Mitochondrial Transmembrane Potential. To evaluate the role of mitochondrial respiration in the cytotoxicity of OSW-1, changes in the potential of mitochondrial membrane were analyzed. Following the treatment of cells with OSW-1 for different time periods, cells were incubated with rhodamine-123 which is a potential-sensitive dye. Cytometric analysis was used to record changes in mitochondrial potential. […]
The effect of OSW-1 on mitochondrial transmembrane potential of ML-1 cells and the corresponding mitochondrial respiration defective mutant cell line C19 were analyzed by incubating with 1 nM OSW-1 for 4, 16 and 24 hours. Change in mitochondrial transmembrane potential was measured by cytometry analysis, using rhodamine-123 as a potential-sensitive fluorescent probe and are depicted in FIG. 11.

C6F cells = experiment: Mitochondrial transmembrane potential (rhodamine-123), C6F; type: cell-based, human; conditions: 0.5 nM
Description: FIG. 10. Effect of Orsaponin (OSW-1) on Mitochondrial transmembrane potential HL-60 cells. The parental HL-60 line and its mutant with mitochondrial respiration defect, clone C6F, were incubated with 0.5 nM OSW-1 for the indicated times. Change in mitochondrial transmembrane potential was measured by cytometry analysis, using rhodamine-123 as a potential-sensitive fluorescent dye.
as §1
The effect of OSW-1 on mitochondrial transmembrane potential in HL-60 cells and C6F cells was also analyzed by incubating the cells with 0.5 nM OSW-1 for the 4, 16 and 24 hours. Change in mitochondrial transmembrane potential was measured by flow cytometry analysis, using rhodamine-123 as a potential-sensitive fluorescent dye and are depicted in FIG. 10.

Structure (SMILES): COc1ccc(C(=O)OC2C(OC3C(O)COC(O[C@H]4C[C@H]5[C@@H]6CC=C7C[C@@H](O)CC[C@]7(C)[C@H]6CC[C@]5(C)[C@@]4(O)[C@H](C)C(=O)CCC(C)C)C3OC(C)=O)OCC(O)C2O)cc1 (stereo partly drawn) [OSW-1, 3β, 16β, 17 α-trihydroxycholost-5-en-22-one 16-O-(2-O-4-methoxybenzoyl-β-D-xylopyranosyl)-(1->3)-(2-O-acetyl-α-L-arabinopyranoside)]
- IC50 (Raji cells (lymphoma)): < 0.5 nM
- IC50 [1]: 0.1 to 0.3 nM
- cell survival, colony formation [2]: effectively kill the p53−/− cells
- IC50 (AsPC-1/IκBα-ND cells): ~0.3 nM
- IC50 [3]: < 1 nM
- change in mitochondrial transmembrane potential [4]: loss of mitochondrial transmembrane potential in only a small portion the cells
- change in mitochondrial transmembrane potential (C6F cells): did not show significant loss of mitochondrial transmembrane potential
